Assay results from US8252832B2, “Kinesin inhibitors as cancer therapeutics” (Novartis AG, priority 2007, dated 2012).
Marks after values point to notes of the source that are not given here.

Legend:
HCT-116 = experiment: Caspase-Glo 3/7 assay; type: cell-based; details: Homo sapiens
Excerpt: Identification of tumor types that are the most sensitive to the KSP inhibitors of the present invention can be accomplished using an unbiased approach that uses several cell-based assays. The assays chosen were as follows: • CellTiter-Glo®. This is an assay designed to measure ATP concentration in a cell culture, and can be correlated to cell number. Briefly CellTiter-Glo® (Promega Corporation) is a homogeneous method using the single CellTiter-Glo® reagent to detect ATP wherein ATP in the assay drives the activity of a thermostable luciferase to create a luminescent signal which can then be measured and correlated with the number of viable cells. Briefly, for adherent cells, 1,000 to 5,000 cells/well were plated in 96-well plates (100 μl/well) and let to adhere for 24 hours before being treated with drug. For non-adherent cells, 1,000 to 10,000 cells/well were plated in 96-well plates (100 μl/well) and immediately treated with drug. Drug dilutions were prepared in DMSO at 1000 times the final concentration. These dilutions were then diluted 1/100 in growth media before being added to the cells (11 μl/well) to achieve the desired final concentration. After 48 h in a 37° C. tissue culture incubator, the plates were processed for the CellTiter-Glo®assay according to the manufacturer's instructions. Protocol for a 72 hour cell proliferation assay: The 72 hour assay was performed the same way as the 48 hour assay except for the following modifications: For adherent cells, 500 to 5,000 cells/well were plated in 96-well plates (90 μl/well cell growth media) and left to adhere for 24 hours before being treated with drug. For non-adherent cells, 1,000 to 10,000 cells/well were plated in 96-well plates (90 μl/well cell growth media) and immediately treated with drug. Data values presented represent the concentration of test compound required for a 50% reduction in growth. • LDH release. The Cytotoxicity Detection KitPLUS (LDH) assay (Roche Diagnostics, Manheim, Germany) measures the amount of LDH released in the media by dying cells; LDH catalyzes the conversion of lactate into pyruvate. The enzymatic reaction is coupled to a chemical reaction that uses a tetrazolium salt to form a formazan that is red and can be detected by its absorbance at 490 nm. This assay measures the amount of cell death after drug treatment. Cells were plated at 10,000 cells/well in 96-well plates (100 μl/well). Adherent cells were let to adhere for 24 hours before being treated with drug, whereas non-adherent cells were immediately treated with drug. Drug dilutions were prepared in DMSO at 1000 times the final concentration. These dilutions were then diluted 1/100 in growth media before being added to the cells (11 μl/well) to achieve the desired final concentration. After 48 h in a 37° C. tissue culture incubator, the plates were processed for the Cytotoxicity Detection KitPLUS (LDH) assay according to the manufacturer's instructions. The media only values were subtracted from all the data points before analysis. Data values presented correspond to the compound concentration wherein LDH output is at half maximal level. • Caspase-Glo® 3/7. The Caspase-Glo® 3/7 Assay (Promega Corporation) is a homogeneous luminescent assay that measures caspase-3/7 activities. The assay provides a proluminescent caspase-3/7 DEVD-aminoluciferin substrate and a thermostable luciferase in a reagent optimized for caspase-3/7 activity, luciferase activity and cell lysis. Adding the single Caspase-Glo® 3/7 Reagent results in cell lysis, followed by caspase cleavage of the substrate. This liberates free aminoluciferin, which is consumed by the luciferase, generating a luminescent signal. The signal is proportional to caspase-3/7 activity. Data values presented correspond to the compound concentration wherein caspase 3/7 activity is at half maximal level.

[1] = tested on: KMS-11-luc disseminated disease; experiment: KMS-11-luc disseminated disease model, tumor response and survival; type: in vivo, mouse
Experimental: Experiments were performed using immunodeficient SCID-Beige female mice approximately 7-8 weeks old (Charles River Laboratories, Wilmington, Mass.). […] Routine animal care and assurance of welfare were as described above.
Human KMS-11-luc multiple myeloma cells were obtained from the laboratory of Suzanne Trudel at the University of Toronto (Ontario, Canada) and tested to be free of Mycoplasma sp. and murine viruses in the IMPACT1 PCR assay panel (RADIL, University of Missouri, Columbia, Mo.). Prior to our receiving this cell line, it had been stably engineered to express luciferase by retroviral transfection of the pGC-gfp/luc vector. KMS-11-luc cells were grown in Iscove's medium supplemented with 2 mmol/L L-glutamine (Mediatech, Inc., Hemdon, Va.) and 10% fetal bovine serum (JRH Biosciences, catalog #12003-1000M). These cells were grown as suspension cultures, maintained at 37° C. in a humidified atmosphere containing 5% carbon dioxide. Cells were cultured for fewer than 10 passages prior to use. Cells were harvested at approximately 2 million cells/mL, and centrifuged at ˜800×g for 5 minutes at 4° C. and then resuspended in a 1:1 mixture of cold Hank's balanced salt solution (HBSS) and Matrigel™ (Mediatech Inc., catalog #21-021-CV; BD Biosciences, catalog #354234, respectively) at a concentration of 50 million cells/mL for implantation subcutaneously (injection volume of 0.2 mL). Alternatively, for the disseminated disease model, cells were prepared only in cold HBSS at a concentration of 100 million cells/mL for intravenous (i.v.) implantation via the tail vein (injection volume of 0.1 mL).
Compound IIa and SB-715992 (free base) were formulated in 20% Captisol for a dose volume of 8 mL/kg. Doses were adjusted to each animal's body weight.
For the efficacy evaluation in the disseminated disease model, 10 million cells in HBSS were injected i.v. via the tail vein in a total volume of […]. Forty mice were randomized and enrolled on study 10 days post-implant, with a mean photon count in the leg bones (right+left) of approximately 9×10^5 photons/second, as determined by bioluminescence imaging. Approximately 10 minutes prior to imaging, mice were injected i.p. with 150 mg/kg luciferin (Xenogen Corporation, Alameda, Calif.), followed by anesthetization with isoflurane. Photon emission was measured using a charge coupled device camera in the IVIS imaging system (Xenogen Corporation). Briefly, a gray-scale image of the mice was captured, followed by an overlay of a bioluminescence map representing the spatial distribution of photons detected from cleaved luciferin in the cancer cells expressing luciferase. Signal intensity was quantified using a customized version of the IGOR Pro version 4.09A Software (WaveMetrics, Inc., Lake Oswego, Oreg.) called Living Image version 2.50.2 (Xenogen). The sum of all detected photon counts from the right+left legs were determined. Bioluminescence of cancer cells in the animals was measured by imaging on designated days until the first mice developed hind limb paralysis due to disease burden, the main end point for when to humanely euthanize mice. The day of euthanasia for each mouse was recorded, and the remaining percentage of mice surviving was plotted over time (Kaplan-Meier survival analysis). P values were calculated using the log-rank test (GraphPad Prism 4.0 software) to assess differences between treated and control groups (p<0.05 was considered significant). […] Data analysis was as described above.

## CC(C)(C)[C@H](c1nc(-c2cc(F)ccc2F)cn1Cc1ccccc1)N(CC[C@H](N)CF)C(=O)CO [Compound IIa]
HCT-116; HCT-116, 24 h
  EC50: 0.12 nM
HCT-116; HCT-116, 48 h
  EC50: 0.09 nM
[1]; 0.25 mg/kg, q4d × 3, i.v
  T/C, Day 13 (%): 15%
  Δ Tumor Bioluminescence, Day 13: 2.2 × 10^7 ± 1.1 × 10^6 photons/sec
[1]; 0.25 mg/kg, q4d × 3, i.v., listed as COMPOUND IIa
  Mean Day of Survival: 29** day
[1]; 0.25 mg/kg, q4d × 3, i.v., listed as compound IIa
  Mean Day of Survival: 29 days
[1]; 0.5 mg/kg, q4d × 3, i.v
  T/C, Day 13 (%): 0.7* %
  Δ Tumor Bioluminescence, Day 13: 1.1 × 10^6 ± 5.8 × 10^5 photons/sec
[1]; 0.5 mg/kg, q4d × 3, i.v., listed as COMPOUND IIa
  Mean Day of Survival: 35** day
[1]; 0.5 mg/kg, q4d × 3, i.v., listed as compound IIa
  Mean Day of Survival: 35 days
[1]; 1 mg/kg, q4d × 3, i.v.
  Regression, Day 13 (%): 47%
  Δ Tumor Bioluminescence, Day 13: −4.3 × 10^5 ± 1.7 × 10^5 photons/sec
[1]; 1 mg/kg, q4d × 3, i.v., listed as COMPOUND IIa
  Mean Day of Survival: 52** day
[1]; 1 mg/kg, q4d × 3, i.v., listed as compound IIa
  Mean Day of Survival: 52 days
